Usually Ki stands for a dissociation constant, usually derived from enzyme kinetics or from competition with a known ligand.

This passage reports Ki results from patent US8628771B2, “CA IX-specific inhibitors” (Institute of Virology Slovak Academy of Sciences, priority 2002, dated 2014).

Like-named read-outs stand apart in the source and are kept apart here.

Test [1] addresses T1, hCA I (Homo sapiens, UniProt P00915).
T1 construct: made in house; host or cells: Escherichia coli BL21 (DE3)
Kind of test: CA esterase activity assay, isozyme hCA I. It is filed as biochemical. Particulars: Table 3.

Test [2] has as its target T2, hCA II (Homo sapiens, UniProt P00918).
T2 construct: made in house; host or cells: Escherichia coli BL21 (DE3)
Kind of test: CA esterase activity assay, isozyme hCA II. It is filed as biochemical.

Test [3] deals with T3, bCA IV (Bos taurus, UniProt Q95323).
T3 construct: CA IV was isolated from bovine lung microsomes as described by Maren et al; from tissue; host or cells: bovine lung microsomes
T3 sequence (Q95323 19-284): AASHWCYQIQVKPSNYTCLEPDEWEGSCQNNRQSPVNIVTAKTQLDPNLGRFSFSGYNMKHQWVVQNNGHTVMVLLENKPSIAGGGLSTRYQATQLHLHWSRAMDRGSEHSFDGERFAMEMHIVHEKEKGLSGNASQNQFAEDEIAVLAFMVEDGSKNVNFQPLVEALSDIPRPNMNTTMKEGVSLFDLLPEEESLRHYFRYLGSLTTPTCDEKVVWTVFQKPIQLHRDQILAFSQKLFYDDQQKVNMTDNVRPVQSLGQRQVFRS
Briefly: CA esterase activity assay, isozyme bCA IV. It is filed as biochemical, bovine. Particulars: Table 3.

Test [4] deals with hCA IX (Homo sapiens, UniProt Q16790). Kind of test: CA CO2 hydrase activity assay, tumor-associated isozyme hCA IX.
Method: An SX.18MV-R Applied Photophysics stopped-flow instrument has been used for assaying the CA CO2 hydration activity assays [44]. […] Inhibitor and enzyme solutions were preincubated together for 10 min at room temperature prior to assay, in order to allow for the formation of the E-I complex.
The mark [5] stands for this setting: human (cloned) isozymes, esterase assay method, read-out: KI hCA I.
Setting [6] is: Table 3, human (cloned) isozymes, esterase assay method, read-out: KI hCA II.
The mark [7] stands for this setting: Tables 1 and 3, read-out: KI against CA II.
Where [8] appears, read: from bovine lung microsomes, esterase assay method, read-out: KI bCA IV.
[9] abbreviates: read-out: KI hCA IX, Table 3, catalytic domain of the human, cloned isozyme, CO2 hydrase assay method.
Where [10] appears, read: KI against CA IX, text discussion of Tables 1-3.

T1 sequence (P00915 whole entry): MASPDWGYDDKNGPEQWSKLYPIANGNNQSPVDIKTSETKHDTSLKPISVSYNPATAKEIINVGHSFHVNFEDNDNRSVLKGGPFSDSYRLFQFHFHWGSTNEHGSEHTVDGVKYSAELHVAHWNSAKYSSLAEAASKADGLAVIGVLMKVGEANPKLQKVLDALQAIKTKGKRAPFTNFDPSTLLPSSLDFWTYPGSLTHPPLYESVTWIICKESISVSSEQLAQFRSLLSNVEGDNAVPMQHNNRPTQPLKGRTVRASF

As to `Cc1cc(C)[n+](-c2ccc(S(=O)(=O)Nc3nnc(S(N)(=O)=O)s3)cc2)c(C(C)C)c1` [Compound 72, 1-N-[5-Sulfamoyl-1,3,4-thiadiazol-2-yl-(aminosulfonyl-4-phenyl)]-2-iso-propyl-4,6-dimethylpyridinium perchlorate], the Ki in test [1] (setting [5]) is 4 nM; in test [2] (setting [6]) it was 0.39 nM; in test [2] (setting [7]) it was 0.2 to 1.61 nM; in test [3] (setting [8]), 3 nM; in test [4] it was 3 to 9 nM; in test [4] (setting [9]) it was 5 nM.
For the compound `Cc1cc(C(C)C)[n+](-c2ccc(S(=O)(=O)Nc3nnc(S(N)(=O)=O)s3)cc2)c(C(C)C)c1` [Compound 73, 1-N-[5-Sulfamoyl-1,3,4-thiadiazol-2-yl-(aminosulfonyl-4-phenyl)]-2,6-di-iso-propyl-4-methylpyridinium perchlorate], the Ki in test [1] (setting [5]) is 7 nM; in test [1] (read-out: KI against CA I), 7 to 12 nM; in test [2] (setting [6]) it was 1.54 nM; in test [2] (setting [7]), 0.2 to 1.61 nM; in test [3] (setting [8]), 4.7 nM; in test [4] (setting [10]), 12 to 35 nM. Moreover, the Ki in test [4] (setting [9]) was found to be 16 nM.
`Cc1cc(C(C)(C)C)[n+](-c2ccc(S(=O)(=O)Nc3nnc(S(N)(=O)=O)s3)cc2)c(C(C)(C)C)c1` [Compound 74]: the Ki was 11 nM in test [1] (setting [5]); 7 to 12 nM in test [1] (read-out: KI against CA I); 3.13 nM in test [2] (setting [6]); 3.13 to 5.96 nM in test [2] (setting [7]); 9.4 nM in test [3] (setting [8]); 5.2 to 10.3 nM in test [3] (read-out: KI against CA IV). The Ki in test [4] was 12 to 35 nM; in test [4] (setting [9]) it was 34 nM.
In the case of `Cc1cc(-c2ccccc2)cc(C)[n+]1-c1ccc(S(=O)(=O)Nc2nnc(S(N)(=O)=O)s2)cc1` [Compound 75, 1-N-[5-Sulfamoyl-1,3,4-thiadiazol-2-yl-(aminosulfonyl-4-phenyl)]-2,6-dimethyl-4-phenylpyridinium perchlorate], the Ki in test [1] (read-out: KI against CA I) was 3 nM; in test [2] (setting [6]), 0.2 nM; in test [2] (read-out: KI against CA II), 0.2 to 1.61 nM; in test [3] (setting [8]) it was 2 nM; in test [4] (setting [10]), 3 to 9 nM; in test [4] (setting [9]) it was 6 nM.
For `CCCc1cc(-c2ccccc2)cc(CCC)[n+]1-c1ccc(S(=O)(=O)Nc2nnc(S(N)(=O)=O)s2)cc1` [Compound 77, 1-N-[5-Sulfamoyl-1,3,4-thiadiazol-2-yl-(aminosulfonyl-4-phenyl)]-2,6-di-n-propyl-4-phenylpyridinium perchlorate], the Ki in test [1] (setting [5]) was 9 nM; in test [1] (read-out: KI against CA I), 7 to 12 nM; in test [2] (setting [6]), 3.45 nM; in test [2] (setting [7]) it was 3.13 to 5.96 nM; in test [3] (setting [8]), 8.1 nM; in test [3] (read-out: KI against CA IV), 5.2 to 10.3 nM. For the same compound, the Ki was 12 to 35 nM in test [4] and 35 nM in test [4] (setting [9]).
Regarding `CCCCc1cc(-c2ccccc2)cc(CCCC)[n+]1-c1ccc(S(=O)(=O)Nc2nnc(S(N)(=O)=O)s2)cc1` [Compound 78], the Ki in test [1] (setting [5]) is 10 nM; in test [1] (read-out: KI against CA I) it was 7 to 12 nM; in test [2] (setting [6]) it was 4.62 nM; in test [2] (setting [7]) it was 3.13 to 5.96 nM; in test [3] (setting [8]) it was 10.3 nM; in test [3] (read-out: KI against CA IV), 5.2 to 10.3 nM. Further, the Ki in test [4] (setting [10]) is 40 to 43 nM; in test [4] (setting [9]) it was 40 nM.
`CC(C)c1cc(-c2ccccc2)cc(C(C)C)[n+]1-c1ccc(S(=O)(=O)Nc2nnc(S(N)(=O)=O)s2)cc1` [Compound 79, 1-N-[5-Sulfamoyl-1,3,4-thiadiazol-2-yl-(aminosulfonyl-4-phenyl)]-2,6-di-isopropyl-4-phenylpyridinium perchlorate]: the Ki in test [1] (setting [5]) was 5 nM; in test [2] (setting [6]), 1.61 nM; in test [2] (setting [7]), 0.2 to 1.61 nM; in test [3] (setting [8]), 4.1 nM; in test [4] (setting [10]), 12 to 35 nM; in test [4] (setting [9]), 30 nM.
Consider `Cc1cc(-c2ccccc2)cc(-c2ccccc2)[n+]1-c1ccc(S(=O)(=O)Nc2nnc(S(N)(=O)=O)s2)cc1` [Compound 80, 1-N-[5-Sulfamoyl-1,3,4-thiadiazol-2-yl-(aminosulfonyl-4-phenyl)]-2-methyl-4,6-diphenylpyridinium perchlorate], for which the inhibition constant (Ki) is 4 nM in test [1] (setting [5]); 1.21 nM in test [2] (setting [6]); 0.2 to 1.61 nM in test [2] (setting [7]); 3 nM in test [3] (setting [8]); 12 to 35 nM in test [4]; 24 nM in test [4] (setting [9]).
In the case of `CCc1cc(-c2ccccc2)cc(-c2ccccc2)[n+]1-c1ccc(S(=O)(=O)Nc2nnc(S(N)(=O)=O)s2)cc1` [Compound 81, 1-N-[5-Sulfamoyl-1,3,4-thiadiazol-2-yl-(aminosulfonyl-4-phenyl)]-2-ethyl-4,6-diphenylpyridinium perchlorate], the Ki in test [1] (setting [5]) was 5 nM; in test [2] (setting [6]) it was 1.14 nM; in test [2] (read-out: KI against CA II), 0.2 to 1.61 nM; in test [3] (setting [8]), 3.8 nM; in test [4] (setting [10]) it was 12 to 35 nM; in test [4] (setting [9]), 29 nM.
Consider `CCCc1cc(-c2ccccc2)cc(-c2ccccc2)[n+]1-c1ccc(S(=O)(=O)Nc2nnc(S(N)(=O)=O)s2)cc1` [Compound 82, 1-N-[5-Sulfamoyl-1,3,4-thiadiazol-2-yl-(aminosulfonyl-4-phenyl)]-2-n-propyl-4,6-diphenylpyridinium perchlorate], for which the Ki in test [1] (setting [5]) is 8 nM; in test [1] (read-out: KI against CA I), 7 to 12 nM; in test [2] (setting [6]), 3.9 nM; in test [2] (setting [7]), 3.13 to 5.96 nM; in test [3] (setting [8]) it was 6 nM; in test [3] (read-out: KI against CA IV), 5.2 to 10.3 nM. Besides, the Ki in test [4] (setting [9]) was 40 nM.
With `CC(C)c1cc(-c2ccccc2)cc(-c2ccccc2)[n+]1-c1ccc(S(=O)(=O)Nc2nnc(S(N)(=O)=O)s2)cc1` [Compound 83, 1-N-[5-Sulfamoyl-1,3,4-thiadiazol-2-yl-(aminosulfonyl-4-phenyl)]-2-iso-propyl-4,6-diphenylpyridinium perchlorate], the Ki in test [1] (setting [5]) was 6 nM; in test [2] (setting [6]) it was 3.74 nM; in test [2] (setting [7]), 3.13 to 5.96 nM; in test [3] (setting [8]) it was 4.5 nM; in test [4], 12 to 35 nM; in test [4] (setting [9]) it was 32 nM.
With `CCCCc1cc(-c2ccccc2)cc(-c2ccccc2)[n+]1-c1ccc(S(=O)(=O)Nc2nnc(S(N)(=O)=O)s2)cc1` [Compound 84, 1-N-[5-Sulfamoyl-1,3,4-thiadiazol-2-yl-(aminosulfonyl-4-phenyl)]-2-n-butyl-4,6-diphenylpyridinium perchlorate], the Ki in test [1] (setting [5]) was 8 nM; in test [1] (read-out: KI against CA I) it was 7 to 12 nM; in test [2] (setting [6]), 4.95 nM; in test [2] (setting [7]), 3.13 to 5.96 nM; in test [3] (setting [8]), 8.4 nM; in test [3] (read-out: KI against CA IV), 5.2 to 10.3 nM. Besides, the Ki in test [4] (setting [9]) was determined as 45 nM.
For `CC(C)(C)c1cc(-c2ccccc2)cc(-c2ccccc2)[n+]1-c1ccc(S(=O)(=O)Nc2nnc(S(N)(=O)=O)s2)cc1` [Compound 85, 1-N-[5-Sulfamoyl-1,3,4-thiadiazol-2-yl-(aminosulfonyl-4-phenyl)]-2-tert-butyl-4,6-diphenylpyridinium perchlorate], the Ki in test [1] (setting [5]) is 12 nM; in test [1] (read-out: KI against CA I), 7 to 12 nM; in test [2] (setting [6]), 4.11 nM; in test [2] (setting [7]) it was 3.13 to 5.96 nM; in test [3] (setting [8]), 7 nM; in test [3] (read-out: KI against CA IV), 5.2 to 10.3 nM. Moreover, the figures for the Ki in test [4] and in test [4] (setting [9]) were 40 to 43 nM and 43 nM, respectively.
For `NS(=O)(=O)c1nnc(NS(=O)(=O)c2ccc(-[n+]3c(-c4ccccc4)cc(-c4ccccc4)cc3-c3ccccc3)cc2)s1` [Compound 87, 1-N-[5-Sulfamoyl-1,3,4-thiadiazol-2-yl-(aminosulfonyl-4-phenyl)]-2,4,6-triphenyl-pyridinium perchlorate], the Ki was 5 nM in test [1] (setting [5]); 5.96 nM in test [2] (setting [6]); 3.13 to 5.96 nM in test [2] (setting [7]); 5.6 nM in test [3] (setting [8]); 5.2 to 10.3 nM in test [3] (read-out: KI against CA IV); 12 to 35 nM in test [4]. Also, the Ki in test [4] (setting [9]) is 12 nM.
